Assay results from PMC5206802 (Journal of medicinal chemistry, 2016).

Columns and labels:
Type in all cases: cell-based
[1] = tested on: HIV-1 A17 (K103N and Y181C); assay: microbe, parasite or virus in culture; conditions: Human immunodeficiency virus 1, MT2, read-out: EC50 A17
[2] = tested on: HIV-1 IIIB; assay: HIV-1 infection assay using MT-2 cells; conditions: Human immunodeficiency virus 1, IIIB, MT2, read-out: EC50 IIIB
[3] = tested on: MT-2 cells
[4] = tested on: HIV-1 NL4-3; assay: Inhibition of HIV-1 infection of TZM-bl cells; conditions: wild-type NL4-3

With `CC(=O)OCc1cc(N)c(Nc2ccc(C#N)cc2)cc1Oc1c(C)cc(CCC#N)cc1C` [Compound 6h, 4-Acetoxymethyl-5-[4″-(2-cyanoethyl)-2″,6″-dimethylphenoxy]-N^1-(4′-cyanophenyl)benzene-1,2-diamine] the EC50 [1] was 4.92 ± 0.12 nM, the EC50 [2] was 0.96 ± 0.12 nM and the “SI (selective index) CC50/EC50(IIIB)” value [3] was 46,667.

In the case of `COCc1cc(N)c(Nc2ccc(C#N)cc2)cc1Oc1c(C)cc(CCC#N)cc1C` [Compound 6k, 5-[4″-(2-Cyanoethyl)-2″,6″-dimethylphenoxy]-N^1-(4′-cyanophenyl)-4-methoxymethylbenzene-1,2-diamine], the EC50 [1] is reported as 2.95 ± 0.5 nM, the EC50 [2] is reported as 3.25 ± 0.23 nM and the “SI (selective index) CC50/EC50(IIIB)” value [3] is reported as >61,538.

`COC(=O)c1cc(N)c(Nc2ccc(C#N)cc2)cc1Oc1c(OC)cc(CCC#N)cc1OC` [Compound 13c, 5-[4″-(2-Cyanoethyl)-2″,6″-dimethoxyphenoxy]-N^1-(4′-cyanophenyl)-4-methoxycarbonylbenzene-1,2-diamine] was tested, and the “fold less potent than the corresponding bromo/methoxy-DAANs (14c and 14d)” value [4] was “at least 20 fold”.

In the case of `CNC(=O)c1cc(N)c(Nc2ccc(C#N)cc2)cc1Oc1c(OC)cc(CCC#N)cc1OC` [Compound 13d, 5-[4″-(2-Cyanoethyl)-2″,6″-dimethoxyphenoxy]-N^1-(4′-cyanophenyl)-4-methylcarbamoylbenzene-1,2-diamine], the “fold less potent than the corresponding bromo/methoxy-DAANs (14c and 14d)” value [4] is reported as “at least 20 fold”.
